This note sets out measurements from PubChem BioAssay (NCI).

Each structure is given as a SMILES string.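 Each compound was tested at five concentrations against cells in 96-well plates for 48 hours. Here, GI50 denotes the concentration required for 50% inhibition of growth. The concentration for full growth arrest is given as TGI.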

Test systems include SNB-75 CNS; SW-620 colon; HOP-92 NSCLC; M14 melanoma; UACC-257 melanoma; OVCAR-8 ovarian; K-562 leukemia; UACC-62 melanoma; NCI/ADR-RES ovarian.
Holding throughout (assay): NCI-60 cell line screen, 48 h

For the compound `COc1ccc2c(c1)c(-c1nc(-c3cn(C)c4ncccc34)cs1)cn2CCCCN1CCCCC1`, the GI50 in the experiment on SNB-75 CNS is 1.07 µM; in the experiment with SW-620 colon, 1.62 µM; with HOP-92 NSCLC it was 1.38 µM. For the same compound, the TGI is 2.28 µM in the experiment with SNB-75 CNS, 2.99 µM with SW-620 colon and 2.76 µM in the experiment on HOP-92 NSCLC.

For the compound `CCn1c(O)c(C(=O)Nc2cccs2)c(=O)n(CC)c1=S`, the TGI came out at 43.8 µM with M14 melanoma; 33.4 µM in the experiment with SNB-75 CNS; 56 µM with UACC-257 melanoma; 56.2 µM with SW-620 colon; 60.2 µM with OVCAR-8 ovarian; 47.8 µM in the experiment with HOP-92 NSCLC. Moreover, the TGI came out at 53.6 µM in the experiment with K-562 leukemia and 29.5 µM in the experiment on UACC-62 melanoma.

On to `Cc1c(Cl)ccc2[s+]snc12`, for which the TGI in the experiment on M14 melanoma is 77.8 µM; in the experiment with SNB-75 CNS, greater than 100 µM; with UACC-257 melanoma, 89.7 µM; in the experiment on SW-620 colon, 52.2 µM; in the experiment on OVCAR-8 ovarian, 57.1 µM; in the experiment with K-562 leukemia it was 73.7 µM. Further, in the experiment on UACC-62 melanoma, the TGI came to 45.2 µM.

Turning to `Cc1cc2c(=O)cc(-c3ccncc3)oc2c(C(N)=O)c1C`, the TGI in the experiment with SNB-75 CNS, in the experiment with UACC-257 melanoma, in the experiment on SW-620 colon, with OVCAR-8 ovarian, with HOP-92 NSCLC and with UACC-62 melanoma was greater than 100 µM each time.

Consider `O=C(NC(=Nc1ccccc1)SCCSC(=Nc1ccccc1)NC(=O)c1ccccc1)c1ccccc1`, for which the TGI in the experiment with M14 melanoma was greater than 100 µM; in the experiment on SNB-75 CNS, greater than 100 µM; in the experiment on UACC-257 melanoma, greater than 100 µM; with SW-620 colon, greater than 100 µM; in the experiment on OVCAR-8 ovarian it was greater than 100 µM; in the experiment with HOP-92 NSCLC, 58.7 µM. The TGI in the experiment on K-562 leukemia and with UACC-62 melanoma was greater than 100 µM in each case.

Take `CC(=O)Nc1ccc(/C=C/C(=O)c2sc(-n3nc(-c4ccccc4)cc3-c3ccccc3)nc2C)cc1`: the GI50 with M14 melanoma, in the experiment with SNB-75 CNS, in the experiment with SW-620 colon, in the experiment with OVCAR-8 ovarian, in the experiment on K-562 leukemia and in the experiment with UACC-62 melanoma was greater than 100 µM in each case. In addition, the TGI with M14 melanoma, in the experiment on SNB-75 CNS, in the experiment with UACC-257 melanoma, in the experiment with SW-620 colon, in the experiment with OVCAR-8 ovarian and with K-562 leukemia was greater than 100 µM in each case. Also, in the experiment on UACC-62 melanoma, the TGI was greater than 100 µM.

Consider `O=C(c1ccccc1)N1CCc2c([nH]c3ccccc23)C1`, for which the TGI in the experiment with M14 melanoma is greater than 100 µM; with SNB-75 CNS, greater than 100 µM; in the experiment with UACC-257 melanoma it was 95 µM; with SW-620 colon, greater than 100 µM; with OVCAR-8 ovarian, greater than 100 µM; in the experiment on HOP-92 NSCLC it was greater than 100 µM. Besides, the TGI in the experiment on K-562 leukemia and in the experiment with UACC-62 melanoma was greater than 100 µM throughout.

Consider `COc1cc(/C=C(\C#N)C(=O)c2ccccc2)cc(OC)c1OC`, for which the TGI with M14 melanoma, with SNB-75 CNS, in the experiment with UACC-257 melanoma, in the experiment with SW-620 colon, in the experiment on OVCAR-8 ovarian and with HOP-92 NSCLC was greater than 100 µM in each case. Also, the TGI in the experiment with K-562 leukemia and in the experiment on UACC-62 melanoma was greater than 100 µM each time.

With `O=C(N=Nc1c(O)[nH]c2c(Cl)cc(Cl)cc12)C(=O)Nc1cccc(C(F)(F)F)c1`, the TGI in the experiment on M14 melanoma, in the experiment with SNB-75 CNS, in the experiment on UACC-257 melanoma, with SW-620 colon, with NCI/ADR-RES ovarian and in the experiment with OVCAR-8 ovarian was greater than 100 µM throughout. Further, the TGI with HOP-92 NSCLC and in the experiment on UACC-62 melanoma was greater than 100 µM throughout.

With `COC(=O)N1C=Cc2c(c(C)c3c([nH]c4ccccc43)c2C)C1C` (stereo not drawn), the TGI in the experiment with M14 melanoma stood at 71.1 µM; with SNB-75 CNS, 47.8 µM; with UACC-257 melanoma, 35 µM; with SW-620 colon, 38.9 µM; with OVCAR-8 ovarian, 39.8 µM; with HOP-92 NSCLC, 36.5 µM. Also, the TGI was 37.7 µM in the experiment with K-562 leukemia and 34.9 µM in the experiment on UACC-62 melanoma.

`CCCCCCCCCCCCCCCCCCCCCCC(=O)N[C@H]1CCc2cc(OC)c(OC)c(OC)c2-c2ccc(SC)c(=O)cc21`: the TGI in the experiment with M14 melanoma is 90.4 µM; in the experiment on SNB-75 CNS, 58.2 µM; in the experiment on UACC-257 melanoma, greater than 100 µM; in the experiment with SW-620 colon it was greater than 100 µM; in the experiment with OVCAR-8 ovarian, 85.6 µM; in the experiment with HOP-92 NSCLC, greater than 100 µM. For the same compound, the TGI in the experiment with K-562 leukemia and with UACC-62 melanoma was greater than 100 µM in each case.

Regarding `O=C(Nc1cc(Cl)ccc1Cl)c1cc2ccccc2oc1=O`, the TGI was greater than 100 µM in the experiment on M14 melanoma; 62.9 µM in the experiment on SNB-75 CNS; greater than 100 µM in the experiment on UACC-257 melanoma; greater than 100 µM in the experiment on SW-620 colon; greater than 100 µM in the experiment on OVCAR-8 ovarian; greater than 100 µM with K-562 leukemia. This compound also yielded a TGI in the experiment on UACC-62 melanoma greater than 100 µM.

As for `O=c1[nH]c(-c2ccncc2)nc2sc3c(c12)CCCCCC3`, the GI50 with M14 melanoma is greater than 100 µM; in the experiment with SNB-75 CNS, 2.71 µM; in the experiment on UACC-257 melanoma, greater than 100 µM; with SW-620 colon it was greater than 100 µM; with OVCAR-8 ovarian it was greater than 100 µM; in the experiment with HOP-92 NSCLC it was greater than 100 µM. Further, the GI50 in the experiment on K-562 leukemia and in the experiment on UACC-62 melanoma was greater than 100 µM in each case. In addition, the TGI in the experiment on M14 melanoma, in the experiment with SNB-75 CNS, in the experiment on UACC-257 melanoma, in the experiment with SW-620 colon, in the experiment on OVCAR-8 ovarian and in the experiment on HOP-92 NSCLC was greater than 100 µM throughout. Besides, the TGI in the experiment with K-562 leukemia and in the experiment with UACC-62 melanoma was greater than 100 µM in each case.

On to `C/C(=N\NC(N)=O)C(CN1CCOCC1)C(c1ccccc1)c1c(O)c2ccccc2oc1=O` (stereo not drawn), for which the TGI with M14 melanoma, with SNB-75 CNS, with UACC-257 melanoma, with SW-620 colon, with NCI/ADR-RES ovarian and with OVCAR-8 ovarian was greater than 100 µM each time. Further, the TGI with HOP-92 NSCLC, in the experiment with K-562 leukemia and in the experiment on UACC-62 melanoma was greater than 100 µM throughout.

On to `O=c1ccn([C@@H]2C[C@H](CO)CS(=O)C2)c(=O)[nH]1` (stereo partly drawn), for which the TGI in the experiment on M14 melanoma, with SNB-75 CNS, with UACC-257 melanoma, with SW-620 colon, with OVCAR-8 ovarian and with HOP-92 NSCLC was greater than 100 µM each time. Moreover, the TGI with K-562 leukemia and in the experiment with UACC-62 melanoma was greater than 100 µM throughout.
